This is an account of results in patent US20050159364A1, “Copper antagonist compounds” (priority 2003, published 2005).

The test system of one data set is Male Wistar rats. The experiment in a line: Effects of streptozotocin (STZ) treatment in rats. It counts as in vivo, rat. The text has this:
Male Wistar rats (n=28, 303±2.9 g) were divided randomly into STZ-treated and non-treated groups. […] Non-treated animals received an equivalent volume of saline. […] Blood glucose and body weight were measure at day 3 following STZ/saline injection and then weekly throughout the study.

For the next data set, the system named is Tg2576 transgenic mice. The note with it: oral treatment, nine weeks for clioquinol; cited from earlier work.
The test system of data set [1] is humans with T2DM or matched controls. The settings on record: for Mean CU Losses, fecal, Post-Tment: n = 10, oral 2.4 g once daily. The procedure: Total metal balance studies were performed in a residential metabolic unit. Total fecal outputs were collected daily for 12 days, freeze dried, and analyzed by ICP-MS for content of Cu, Fe, Zn, Ca, Mg, Mn, Cr, […] and Se.

The subject of data set [2] is STZ-treated and non-STZ-treated rats. The settings on record: for Serum Cu: trientine i.v. 0.1-100 mg.kg^−1 hourly, terminal sample; for Serum Fe: trientine i.v. The source says:
All animals were fasted overnight prior to surgery but continued to have ad libitum access to deionized water. […] The femoral artery and vein were cannulated with a solid-state blood pressure transducer (Mikrotip™ 1.4F, Millar Instruments, Texas, USA) and a saline filled PE 50 catheter respectively. The ureters were exposed via a midline abdominal incision, cannulated using polyethylene catheters (external diameter 0.9 mm, internal diameter 0.5 mm) and the wound sutured closed. The trachea was cannulated and the animal ventilated at 70-80 breaths.min^−1 with air supplemented with O2 (Pressure Controlled Ventilator, Kent Scientific, Conn., USA). The respiratory rate and end-tidal pressure (10-15 cmH2O) were adjusted to maintain end-tidal CO2 at 35-40 mmHg (SC-300 CO2 Monitor, Pryon Corporation, Wisconsin, USA). Body temperature was maintained at 37° C. throughout surgery and the experiment by a heating pad. Estimated fluid loss was replaced with intravenous administration of 154 mmol.l^−1 NaCl solution at a rate of 5 ml.kg^−1.h^−1.
(§1) Following surgery and a 20 min stabilization period, the experimental protocol was started. […] Control animals received an equivalent volume of saline. Urine was collected in 15 min aliquots throughout the experiment in pre-weighed polyethylene epindorf tubes. At the end of the experiment a terminal blood sample was taken by cardiac puncture and the separated serum stored at −80° C. until future analysis. Hearts were removed through a rapid mid-sternal thoracotomy and processed as described below.
Urine and tissue analysis was carried out as follows. Instrumentation:A Perkin Elmer (PE) Model 3100 Atomic Absorption Spectrophotometer equipped with a PE HGA-600 Graphite Furnace and PE AS-60 Furnace Autosampler was used for Cu and Fe determninations in urine. Deuterium background correction was employed. A Cu or Fe hollow-cathode lamp (Perkin Elmer Corporation) was used and operated at either 10 W (Cu) or 15 W (Fe). The 324.8 nm atomic line was used for Cu and the 248.3 nm atomic line for Fe. The slit width for both Cu and Fe was 0.7 nm. Pyrolytically coated graphite tubes were used for all analyses. The injection volume was 20 μL. A typical graphite furnace temperature program is shown below:
Sample pretreatment was carried out as follows. Urine:Urine was collected in pre-weighed 1.5 ml micro test tubes (eppendorf). After reweighing, the urine specimens were centrifuged and the supernatant diluted 25:1 with 0.02 M 69% Aristar grade HNO3. The sample was stored at 4° C. prior to GF-AAS analysis. If it was necessary to store a sample for a period in excess of 2 weeks, it was frozen and kept at −20° C. Serum:Terminal blood samples were centrifuged and serum treated and stored as per urine until analysis. From the trace metal content of serum from the terminal blood sample and urine collected over the final hour of the experiment, renal clearance was calculated using the following equation: [formula]

The conditions of data set [3]: 0.9% saline, 0.67-670 mg/ml, four months at 4° C. Here is the method: The concentrations of the stock formulations were:0.67 mg/ml, 6.7 mg/ml, 67 mg/ml, and 670 mg/ml. The formulation was then administered to the rats in doses of 0.1 mg/kg, 1 mg/kg, 10 mg/kg, and 100 mg/kg to the animals respectively.
The subject of data set [4] is STZ-treated and non-STZ-treated rats. The experiment in a line: Left ventricular histology by LCM and TEM after oral trientine.
Data set [5] deals with STZ-treated and normal rats. The experiment in a line: Isolated working heart function after 7 weeks oral trientine.
Data set [6] deals with STZ-treated and non-STZ-treated rats. The settings on record: for Cu content of heart tissue / Fe content of heart tissue: mean ± SEM. The procedure:
Methods were carried out as follows. Spectrophotometric analysis was conducted as described in Example 2. Cu, Fe and Zn in tissue digests were determined at Hill Laboratories (Hamilton, New Zealand) using either a PE Sciex Elan-6000 or PE Sciex Elan-6100 DRC ICP-MS.
Sample pre-treatment was carried out as follows. Heart:Following removal from the animal, the heart was cleaned of excess tissue, rinsed in buffer to remove excess blood, blotted dry and a wet ventricular weight recorded. Using titanium instruments a segment of left ventricular muscle was dissected and placed in a pre-weighed 5.0 ml polystyrene tube. The sample was freeze-dried overnight to constant weight before 0.45 ml of 69% Aristar grade HNO3 was added. The sample tube was heated in a water bath at 65° C. for 60 minutes. The sample was brought to 4.5 ml with Milli-Q H2O. The resulting solution was diluted 2:1 in order to reduce the HNO3 concentration below the maximum permitted for ICP-MS analysis.

Data set [7] concerns male humans with T2DM and matched non-diabetic controls. The text has this: Methods were as follows. Human studies were approved by institutional ethics and regulatory committees. We measured urinary metal excretion in human males with T2DM or matched non-diabetic controls, baseline information on which is shown in Table 9, in a randomized, double blind, placebo-controlled trial. Males with uncomplicated T2DM (Table 9) underwent 12-d elemental balance studies in a fully residential metabolic unit. All foods and beverages were provided. Total daily intake (method of double diets) and excretion (urinary and fecal) of trace elements (Ca, Mg, Zn, Fe, Cu, Mn, Mo, Cr and Se) were determined (ICP MS).

For data set [8] the following is noted: 15 days. Here is the method:
One sample of the solution was stored in the dark at 4° C. and 21° C. in the dark and a third sample was stored at 21° C. in daylight.
The Ultraviolet-visible spectrum of the formulation was initially measured at day 0 and then at day 15. 20 μl aliquots of sample solutions were taken at day 15. For each aliquot 960 μl of 50 mM TRIS buffer and 20 μl aliquot of Copper Nitrate standard (100 mM—Orion Research Inc) were added.

The subject of another data set is humans with T2DM. In words: 6-month double-blind placebo-controlled oral trientine trial, LV mass by cardiac MRI.
In data set [9] the test system is STZ-treated and non-STZ-treated rats. The note with it: highest dose 100 mg/kg i.v., 2 min following administration. Here is the method: as §1
Mean arterial pressure (MAP), heart rate (HR, derived from the MAP waveform) oxygen saturation (Nonin 8600V Pulse Oximeter, Nonin Medical Inc., Minnesota, USA) and core body temperature, were all continuously monitored throughout the experiment using a PowerLab/16s data acquisition module (AD Instruments, Australia).
Following surgery and a 20 min stabilization period, the experimental protocol was started. […] Urine was collected throughout the experiment in 15 min aliquots.

Setting [10] is: STZ-treated animals n = 14, mean ± SEM.
Setting [11] is: STZ-treated rats, oral trientine 7 weeks.
Where [12] appears, read: STZ-treated and non-STZ-treated rats.

Where “and” joins values, the source holds several entries; their conditions need not be identical. Identical values can stand only once. Entries after “also recorded” stand apart in the source; their conditions may differ. Counter-ions that a name gives are not always drawn. Like-named read-outs stand apart in the source and are kept apart here. Marks after values point to notes of the source that are not given here.

`CN(N=O)C(=O)N[C@H]1C(O)O[C@H](CO)[C@@H](O)[C@@H]1O` (mixture of isomers) [STZ, streptozotocin]: the Daily food consumption result with Male Wistar rats (STZ 55 mg.kg^−1 i.v., n = 14, mean ± SEM) is listed as “*58 ± 1 g”. Moreover, the “Heart rate (HR), control period prior to infusion” value in the data set with Male Wistar rats (STZ-treated anaesthetized rats) was 287±11 bpm. Further, in the data set with Male Wistar rats (setting [10]), the Heart weight/body weight entry is listed as “*2.93 ± 0.05 mg · g^−1” and the Wet heart weight result is given as “*0.78 ± 0.02 g”.

With `Oc1c(I)cc(Cl)c2cccnc12` [clioquinol], in the data set on Tg2576 transgenic mice, the “Brain Aβ / amyloid deposition” value was “decrease in brain Aβ deposition”.

As to `NCCNCCNCCN` [trientine dihydrochloride], the “Effect on fecal Cu output” value in [1] (normal humans and those with T2DM, dihydrochloride) is “does not result in increased excretion of copper in the feces”. In addition, the “Cu excretion in urine versus saline at lowest dose” value in data set [2] (0.1 mg.kg^−1 parenteral, rats) was “significantly increased”.

For `NCCNCCNCCN` [trientine hydrochloride], the “Stability of stock solutions on storage (copper chelation efficacy)” value in data set [3] (hydrochloride) is listed as “without appreciable deterioration in efficacy”.

Regarding `NCCNCCNCCN` [trientine], in [4], the “Myocardium of trientine-treated non-STZ-treated rats” value is “appeared normal”. Also, the “Myocardial (LV) histology in STZ-treated rats” value in data set [4] (7 weeks oral trientine) is recorded as “improved; also recorded: substantive recovery of LV structure”. Besides, in [3], the “Stability of stock solutions on storage (copper chelation efficacy)” value is given as “remains active as a copper chelator”. Also, in data set [5] (setting [11]), the “Cardiac function versus untreated STZ-treated controls” value is “improved cardiac function” and the “Cardiac output with increasing pre-load, after-load constant” value is “restored to Sham values”. In addition, in data set [5] (increasing after-load, constant pre-load), the “Trientine treated STZ-treated hearts still functioning when 50% of untreated STZ-treated hearts had failed” value is given as “about 90%”. Besides, in data set [5] (non-STZ-treated rats, oral trientine 7 weeks), the “Effect on cardiac performance of normal animals” value is “no adverse effects on cardiac performance”. Also, the “Blood glucose profile versus untreated comparison group” value in data set [5] (oral trientine in drinking water weeks 7-13) is reported as “made no difference”. The “heart:body weight ratio in STZ-treated animals” value in data set [5] (oral trientine weeks 7-13 versus untreated STZ) is “small but significant improvement”. Moreover, the “Mean CU Losses, fecal, Post-Tment” value in data set [1] (control) came out at 2.045 mg/day. Also, the “Mean CU Losses, fecal, Post-Tment” value in [1] (diabetic) is given as 1.965 mg/day. Also, the “Effect on fecal outputs of Zn, Fe, Ca, Mg, Mn, Cr, Mb or Se” value in data set [1] (oral 2.4 g once daily) is listed as “Neither diabetes nor trientine had measurable effects”. Moreover, in data set [6] (STZ-treated rats), the “Cu content of heart tissue” value is 24.7 ± 1.5 μg · g^−1 dry tissue and the “Fe content of heart tissue” value stood at 186 ± 46 μg · g^−1 dry tissue. Also, the “Effect on copper content of cardiac tissue” value in data set [6] (acute i.v. increasing doses, normal and STZ-treated rats) is listed as “no significant effect”. In addition, in data set [6] (non-STZ-treated rats), the “Cu content of heart tissue” value is listed as 27.1 ± 1.0 μg · g^−1 dry tissue and the “Fe content of heart tissue” value came out at 235 ± 39 μg · g^−1 dry tissue. In addition, the “Mean trientine-evoked urinary Cu-excretion” value in data set [7] (T2DM, oral 2.4 g once-daily) was 5.8 µmol/day. For the same compound, the “Urinary Cu, diabetic and control groups” value in data set [7] (day 7, oral 2.4 g) is “increased urinary Cu in both groups”. Also, the “Mean trientine-evoked urinary Cu-excretion” value in data set [7] (non-diabetic controls, oral 2.4 g once-daily) came to 4.1 µmol/day. Further, in [7] (oral 2.4 g once-daily), the “Increase of trientine-evoked urinary Cu-excretion in T2DM compared to non-diabetic controls” value was determined as 40% and the “Trientine-evoked urinary Fe excretion” value is reported as “no corresponding increase”. In addition, the “Urinary Cu excretion, trientine-treated T2DM versus trientine-treated non-diabetic controls” value in data set [7] (single 2.4-g oral dose, day 7, P<0.05) is “significantly greater”. Moreover, the “Change in ability to chelate copper on storage” value in [8] (100 mM in deionized water, 4° C. dark, 21° C. dark, 21° C. daylight) is reported as “no detectable change”. In data set [8] (100 mM solution, 21° C., daylight), the “Effect of room light on copper chelation” value is “no detectable detrimental effect”. Moreover, the “Adverse events during 6 months' therapy” value in the data set with humans with T2DM (600 mg twice-daily oral) is reported as “No significant trientine-related adverse events”. In the data set on humans with T2DM (6 months − baseline, mean), the “Δ diastolic blood pressure” value is −3.9 mmHg, the “Δ systolic blood pressure” value is −3.5 mmHg and the Δ urinary copper is -0.83 µmol/L. In addition, the “Δ left ventricular mass/body surface area” value in the data set with humans with T2DM (6 months − baseline, mean, P<0.01 vs. placebo) is reported as −5.56** g · m^−2. In addition, in the data set with humans with T2DM (diabetics, 600 mg twice-daily oral, 6 months), the “Decrease of mean LV mass” value turned out to be 5%. For the same compound, the “Urine excretion versus saline” value in data set [2] (100 mg.kg^−1 dose, non-STZ-treated rats) is on record as “increased urine excretion”. Further, in [2] (setting [12]), the “Total copper excreted over the entire duration of the experiment versus saline controls” value was “significantly increased” and the “Urinary iron excretion versus saline” value is given as “not increased”. In addition, in [2] (STZ-treated rats, n = 6), the “Serum Cu” value stood at 7.56 ± 0.06 μg · μl^−1 × 10^−4 and the “Serum Fe” value worked out at 35.7 ± 7.98 μg · μl^−1 × 10^−4. Further, the “Urinary Cu excretion versus equivalent volume of saline” value in [2] (all doses 0.1, 1.0, 10, 100 mg.kg^−1 i.v., STZ-treated and non-STZ-treated rats) was “excreted more Cu”. Further, the “Urinary copper excretion per gram of bodyweight, STZ-treated versus non-STZ-treated” value in data set [2] (following trientine administration) was “greater per gram of bodyweight in STZ-treated”. Further, in data set [2] (non-STZ-treated rats, n = 4), the “Serum Cu” value was 7.11 ± 0.41 μg · μl^−1 × 10^−4 and the “Serum Fe” value was 33.6 ± 1.62 μg · μl^−1 × 10^−4. In addition, the “Brain Aβ / amyloid deposition” value with Tg2576 transgenic mice is listed as “did not inhibit amyloid deposition”. Moreover, the “Maximum decrease of mean arterial pressure (MAP)” value in data set [9] is 19±4 mmHg and 19+/−4 mmHg.
